From ChEMBL document CHEMBL1201862, “PubChem BioAssay data set” (2004)
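How tested: cells in 96-well plates exposed to compound for 48 hours at five concentrations. The concentration for 50% growth inhibition is given as GI50.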 Active and inactive are the calls of the source. Cut-off read from the data, not from the text of the source: active = GI50 up to about 1.1 µM and inactive = higher.

Columns and labels:
Assay in all cases: NCI tumour cell line growth inhibition, 48 h
BT-549 = tested on: BT-549
UACC-62 = tested on: UACC-62
786-0 = tested on: 786-0
A498 = tested on: A498
SNB-75 = tested on: SNB-75
IGROV-1 = tested on: IGROV-1
NCI-H226 = tested on: NCI-H226
HL-60 = tested on: HL-60
T47D = tested on: T47D
UO-31 = tested on: UO-31
COLO 205 = tested on: COLO 205
SK-MEL-5 = tested on: SK-MEL-5
LOX IMVI = tested on: LOX IMVI
SF-268 = tested on: SF-268
HOP-92 = tested on: HOP-92
SK-MEL-2 = tested on: SK-MEL-2
CCRF-CEM = tested on: CCRF-CEM
SF-295 = tested on: SF-295
K562 = tested on: K562
SW-620 = tested on: SW-620

Measured: GI50

NC1CCC(N(CC(=O)O)CC(=O)O)C(N(CC(=O)O)CC(=O)O)C1 (stereo not given)
inactive: BT-549 > 100 µM | UACC-62 > 100 µM | 786-0 > 10 µM | A498 > 100 µM | SNB-75 > 100 µM | IGROV-1 > 100 µM | NCI-H226 > 100 µM | HL-60 > 100 µM | T47D > 100 µM | UO-31 > 100 µM | COLO 205 > 100 µM | SK-MEL-5 > 100 µM | LOX IMVI > 100 µM | SF-268 > 100 µM | HOP-92 > 100 µM | SK-MEL-2 > 100 µM | CCRF-CEM > 100 µM | SF-295 > 100 µM | K562 > 100 µM | SW-620 > 100 µM
